Patent US10266609B2, “Immunomodulating beta-1,6-D-glucans” (Innate Biotherapeutics, LLC, priority 2014, dated 2019)

System: Anti-β-1,6-Glucan IgG antibodies (affinity purified from IVIG, Baxter)
Test: ELISA: binding of oligosaccharides to anti-β-1,6-glucan antibodies; also: key: a plus (+) sign indicates that the glucan was active in the assay; a minus (−) sign indicates that the glucan was not active; the '+/−' symbol indicates inconclusive results
Conditions: plate coated with oligosaccharide in PBS; 40 ug/mL anti-Beta 1,6 Glucan IgG; anti-human IgG-HRP, TMB, absorbance at 620 nm
Summary of the method: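 Oligosaccharides coated overnight at 4° C in PBS, casein-blocked 1 h at room temperature, then incubated 45 min with 40 ug/mL anti-β-1,6-glucan IgG. Bound IgG detected with anti-human IgG-HRP (1:5000, 45 min, dark) and TMB; absorbance at 620 nm read every 1 min for 60 min.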

| Compound | ELISA assay data: glucan active in detection of anti-beta glucan IgG |
| --- | --- |
| [N-]=[N+]=NCCO[C@@H]1OC(CO[C@@H]2OC(CO[C@@H]3OC(CO[C@@H]4OC(CO[C@@H]5OC(CO[C@@H]6O[C@H](CO)[C@@H](O)[C@H](O)[C@H]6O)[C@@H](O)[C@H](O)[C@H]5O)[C@@H](O)[C@H](O)[C@H]4O)[C@@H](O)[C@H](O)[C@H]3O)[C@@H](O)[C@H](O)[C@H]2O)[C@@H](O)[C@H](O)[C@H]1O (stereo partly drawn) [β-O(CH2)2N3, n=6, 2-Azidoethyl [O-β-D-glucopyranosyl-1,6]5-β-D-glucopyranoside] | + |
| O=CCCCCO[C@@H]1O[C@H](CO[C@@H]2O[C@H](CO[C@@H]3O[C@H](CO[C@@H]4O[C@H](CO)[C@@H](O)[C@H](O)[C@H]4O)[C@@H](O)[C@H](O)[C@H]3O)[C@@H](O)[C@H](O)[C@H]2O)[C@@H](O)[C@H](O)[C@H]1O [β-O(CH2)4C═O, n=4, 1-O-[4-oxybutoxy]-6-O—[O-β-D-glucopyranosyl-(1,6)]3-β-D-glucopyranoside] | + |
| N#C[C@H](O[C@@H]1O[C@H](CO[C@@H]2O[C@H](CO)[C@@H](O)[C@H](O)[C@H]2O)[C@@H](O)[C@H](O)[C@H]1O)c1ccccc1 [β-OCH(CN)Ph, n=2, amygdalin, reference compound] | − |
| N-[6-[(O-(β-D-glucopyranosyl-(1,6))3-β-D-glucopyranosyl](2RS,3R,4R,5R)-2,3,4,5-tetrahydroxyhexyl]-4-piperidylacetic acid [4-piperidine(CH2)CO2H, n=4] | + |
| N-[6-[(O-(β-D-glucopyranosyl-(1,6))4-β-D-glucopyranosyl](2RS,3R,4R,5R)-2,3,4,5-tetrahydroxyhexyl]-4-piperidylacetic acid [4-piperidine(CH2)CO2H, n=5] | + |
| [(2R,3R,4R,5RS)-2,3,4,5-tetrahydroxy-6-[(N-methyl-N-(5-aminopentyl))amino]hexyl [O-β-D-glucopyranosyl-1,6]6-β-D-glucopyranoside [N(Me),N(CH2)5NH2, n=7] | + |
| [O-β-D-glucopyranosyl-1,6-]5-D-glucose [OH, n=6] | + |
| [O-β-D-glucopyranosyl-1,6]6-D-glucopyranoside [OH, n=7] | + |
